Reference: US5747472A, “Therapeutic methods for using ARA-G derivatives” (Glaxo Wellcome Inc., priority 1990, dated 1998)
Values after ≈ are worked out from the molar mass of the structure shown. “Also recorded” adds a separate entry of the source. Where two headings read alike, the source gives them in different places.

Assays:
[1] = tested on: T cells compared to B cells; T-leukemic cells; settings: cited from earlier work
[2] = tested on: IM9 cells; assay: Inhibition of the growth of B cells (IM9); format: cell-based; settings: Homo sapiens; for IC50: IM-9; for activity at 10 µM: IM-9, printed in parentheses beside IC50 >10 μM, read-out: % of Control growth
Protocol: (§1) The compounds of the invention were tested for inhibition of the growth of T cells (Molt 4) compared to B cells (IM9) by the method of Averett, D., Journal of Virological Methods, 23, (1989), 263-276.

[3] = Water solubility (statement); format: physicochemical; settings: in words
[4] = Solubility in PBS at 25° C.; format: physicochemical; settings: aqueous buffer, phosphate buffered saline
[5] = Bioavailability of araG after oral administration to Cynomolgus monkeys (plasma, urine); format: in vivo; settings: fasted Cynomolgus monkeys, individual animals; for Cmax: read-out: Plasma araG Peak Level
Protocol: AraG and compounds of the invention were administered orally to Cynomolgus monkeys which had been fasted for eight hours. Each compound was given to two monkeys. The dosage was 94 μmol/kg which is equivalent to 27 mg/kg araG. Blood samples were taken over the following 24 hours, and urine was collected over the same 24 hours. Concentrations of araG in plasma extracts and urine were determined by reverse phase HPLC.

[6] = Bioavailability after oral dosing in primates (statement); format: in vivo; settings: in words
[7] = tested on: Molt 4 cells; assay: Inhibition of the growth of T cells (Molt 4); format: cell-based; settings: Homo sapiens
Protocol: as §1

[8] = tested on: human T-cell line (Molt 4) in contrast to a human B-cell line (IM9); assay: Selective inhibition of T cell growth, Molt 4 compared to IM9; format: cell-based; settings: Molt 4 vs IM9
Protocol: as §1

In the case of `Nc1nc2c(ncn2[C@@H]2O[C@H](CO)[C@@H](O)[C@@H]2O)c(=O)[nH]1` [araG, arabinofuranosyl guanine], the “selective inhibition of growth of T cells / selective cytotoxic activity for T-leukemic cells” value [1] is given as “selectively inhibits the growth of T cells compared to B cells; also recorded: selective cytotoxic activity for T-leukemic cells”, the IC50 [2] is given as over 10 µM and the activity at 10 µM [2] is given as 84%. The water solubility [3] was “limited water solubility”, the solubility [4] was 4 mM (≈ 1.13 mg/mL) and the “Plasma araG AUC 0.7 hrs” value ([5]; 94 μmol/kg, plasma, 420 min) was 21.1 µM·h. For the same molecule, the Cmax ([5]; 94 μmol/kg, plasma) was 4.6 µM, the “Urine % Recovered as araG” value ([5]; 94 μmol/kg, urine over 24 hours, 1440 min) was 4.2% and the AUC(0-t) at 7 h ([5]; cynomolgus monkey, plasma, po, 94 umol/kg, plasma, read-out: Plasma araG AUC 0.7 hrs) was 20.8 µM·h. The Cmax ([5]; cynomolgus monkey, plasma, po, 94 umol/kg, plasma) was 6 µM, the dose excreted at 24 h ([5]; cynomolgus monkey, urine, po, 94 umol/kg, urine over 24 hours, read-out: Urine % Recovered as araG) was 3.9% and the oral bioavailability [6] was “low bioavailability after oral dosing in primates”. It also gave an IC50 [7] of 1.4 ± 0.08 µM.
For `COc1nc(N)nc2c1ncn2[C@@H]1O[C@H](CO)[C@@H](O)[C@@H]1O` [compound 1, 2-Amino-6-methoxy-9-(β-D-arabinofuranosyl)-9H-purine], the IC50 [2] was over 10 µM, the activity at 10 µM [2] was 85% and the “selective inhibition of growth of T-cell line vs B-cell line” value [8] was “selectively inhibits the growth of a human T-cell line (Molt 4) in contrast to a human B-cell line (IM9)”. The IC50 [7] was 0.8 ± 0.1 µM.
Work on `COc1nc(N)nc2c1ncn2[C@@H]1O[C@H](COC(C)=O)[C@@H](OC(C)=O)[C@@H]1O` [Example 2j, 9-(3,5-di-O-Acetyl-β-D-arabinofuranosyl)-2-amino-6-methoxy-9H-purine] yielded a solubility [4] of 38 mM (≈ 14.5 mg/mL).
With `COc1nc(N)nc2c1ncn2[C@@H]1O[C@H](COC(C)=O)[C@@H](O)[C@@H]1O` [Example 1b, 9-(5-O-Acetyl-β-D-arabinofuranosyl)-2-amino-6-methoxy-9H-purine] the solubility [4] was 92 mM (≈ 31.2 mg/mL).
